Measured values taken from patent US6083920A, “Compositions for modulating intracellular inositol trisphosphate concentration” (priority 1996, dated 2000).
Several values for one entry are separate records, joined by “and”; a condition that tells them apart may be missing. Equal entries are not always repeated. Entries after “also recorded” stand apart in the source; their conditions may differ.

Tests used:
[1] = test system: metabotropic glutamate receptor; test: Behavioral analysis after ICV infusion (quisqualate excitotoxicity); assay type: in vivo, male F344 rats; details: for effective dose: ICV, pilot testing; for death, cases: 120 min; for convulsant behavior, compound alone: no quisqualate; for behavioral or neurotoxic effects of the compound itself: doses as high as 125 nmoles per animal ICV; for behavioral and histological changes caused by quisqualate: pretreated with 125 nmoles ICV
Method: The animals used in this experiment were male F344 rats (Charles River Breeding Laboratories). The animals were housed individually, exposed to a 12-hour light-dark cycle, and allowed free access to food and water. The animals weighed approximately 250 g at the beginning of each experiment and were weighed daily. In addition, the animals were habituated to handling before each experiment.
Before administering various compounds, the animals were anesthetized with sodium pentobarbital (50 mg/kg, i.p.) and positioned in a sterotaxic instrument. A 26 gauge cannula was inserted into the cerebral ventricle at the following co-ordinates: 1.0 mm posterior to bregma, 1.5 mm lateral to the midline, and 4.0 mm below the dorsal surface of the neocortex. Cannulas were capped and fixed in place with dental cement. One week after cannulation, 10 μl of each of the treatment drugs was infused, ICV (i.e. into the ventricals of the brain), via a micropump at a rate of 10 μl/min. For this procedure, the animals were lightly restrained and unanesthetized. Following administration of the compound, the infusion cannula remained in position for one minute, after which the permanent in situ cannula was capped.
The compounds administered were obtained from a commercial supplier (Sigma Chemical Co., St. Louis, Mo.) and dissolved in saline prior to injection. […]
Pilot studies identified several specific behavioral measures that could be used to indicate excessive activation of the metabotropic receptor (see Table 3). […] The experiments that follow were based on an analysis of these behaviors over a two hour period after administration of the compounds of the invention. Behavioral observation was carried out by two trained observers, who worked independently of one another and who were blind to the experimental groups. […] Frequency and duration means were computed by subtracting pre-infusion means from post-infusion means.
Some of the experiments that were performed first were carried out to determine the amount of quisqualate required to produce behavioral and histological changes and the amount of lysosphingolipids that could effectively prevent or reverse these effects. Table 3 outlines the behavioral responses of rats to various doses of quisqualate (injected as described above) and the associated histological changes. The behaviors are listed as they occur chronologically. The limb clasp and reflex tests indicate the degree of decortication. A limb clasp or placement score of zero is normal, and a score of 3 is severely abnormal.
The data shown in Table 4 represents the observations of pilot studies aimed at determining the effect (on behavior) of lysosphingolipids infused directly into the lateral ventricles of the brain 30 minutes prior to infusion of quisqualate.
The experiment began one week after ICV cannulation. Animals (n=6 per group) were randomly allocated to one of 8 treatment groups: (1) saline, (2) quisqualate at 225 nmoles, (3) psychosine at 125 nmoles, (4) lysosphingomyelin at 125 nmoles, (5) lysosphingomyelin at 150 nmoles, (6) quisqualate at 225 nmoles and psychosine at 125 nmoles, (7) quisqualate at 225 nmoles and lysosphingomyelin at 125 nmoles, and (8) quisqualate at 225 nmoles and lysosphingomyelin at 150 nmoles. Following the baseline observation period, animals received the first of two ICV infusions (all infusions were of a 10 μl volume that was administered over a 1 minute period). For the first five groups listed above, this consisted of saline (10 μl/minute), for the following 3 groups the infusions were psychosine at 125 nmoles, lysosphingomyelin at 125 nmoles, or Iysosphingomyelin at 150 nmoles, respectively. Thirty minutes later, all animals received the second infusion which, for the first five groups listed above, consisted of saline, quisqualate at 225 nmoles, psychosine at 125 nmoles, lysosphingomyelin at 125 mrnoles, and lysosphingomyelin at 150 nmoles respectively. […]

[2] = test system: phospholipase C isoforms beta, delta, and gamma; details: for diminution in Vmax / increase in calcium ion concentration required for optimal activity: 10 μM lysocerebroside or 5 μM lysosphingomyelin; for effect on KM for substrate phosphatidylinositol bis-phosphate: 10 μM lysocerebroside, 5 μM lysosphingomyelin
Method: The effects of sphingosine, lysocerebroside, and lysosphingomyelin on the kinetics of pure, immunologically isolated phospholipase C isoforms beta, delta, and gamma (which are commercially available) was examined. For each isoform, 10 μM sphingosine was added to a reaction medium consisting of 1 μg phospholipase C isoform/ml, Tris-malate buffer (50 mM, pH 7.0) containing 100 μM phosphatidyl inositol bis-phosphate tri-ammonium salt, 0.01 μCi tritium labeled phosphatidyl inositol bis-phosphate, 100 mM NaCl, 10 mM CaCl2, and 5 mM 2-merceptoethanol.

[3] = Quisqualate 225 nmoles ICV, rat
[4] = Quisqualate 250 nmoles ICV, rat
[5] = pretreatment 125 nmoles ICV 30 minutes before quisqualate 225 nmoles, n=6

## N[C@@H](Cn1oc(=O)[nH]c1=O)C(=O)O [Quisqualate, quisqualate]
[1]; rat
  effective dose: 225 nmol
[1]; Quisqualate 100 nmoles ICV, rat
  BEHAVIOR: teeth chatter; also recorded: mild scratching; also recorded: hind leg weakness 60 minutes
[1]; Quisqualate 100 nmoles ICV, score zero is normal, 3 is severely abnormal
  placement and clasp reflex score: 0
[1]; Quisqualate 150 nmoles ICV, rat
  BEHAVIOR: teeth chatter; also recorded: localized twitches; also recorded: mild hyperactivity walking in circles; also recorded: hind leg weakness for 60 minutes
[1]; Quisqualate 150 nmoles ICV, rat, listed as quisqualate
  BEHAVIOR: increase in activity and teeth chattering
[1]; Quisqualate 150 nmoles ICV, score zero is normal, 3 is severely abnormal
  placement and clasp reflex score: 0
[1]; Quisqualate 200 nmoles ICV, rat
  BEHAVIOR: teeth chatter; also recorded: occasional mild convulsions; also recorded: hyperactivity - circle walking; also recorded: episodic akinesia/tonic immobility; also recorded: hind leg weakness
[1]; Quisqualate 200 nmoles ICV, score zero is normal, 3 is severely abnormal
  limb clasp and placement reflex score: 0
[1]; [3]
  BEHAVIOR: teeth chatter; also recorded: hind leg paralysis; also recorded: hyperactivity/walk in circles; also recorded: full body convulsions - moderate; also recorded: localized spasms twitching/jerking; also recorded: episodic akinesia/tonic immobility; also recorded: respiratory distress; also recorded: foaming at mouth
  death, cases: 60%
[1]; Quisqualate 225 nmoles ICV, rat, listed as quisqualate
  BEHAVIOR: moderate convulsions
[1]; Quisqualate 225 nmoles ICV, score zero is normal, 3 is severely abnormal
  placement and clasp reflex score: 1-2
[1]; [4]
  BEHAVIOR: vocalization; also recorded: teeth chattering; also recorded: scratching; also recorded: localized spasms jerking/twitching; also recorded: full body convulsions-severe/repeated; also recorded: foaming at mouth; also recorded: respiratory distress
  death, cases: 75%
[1]; Quisqualate 250 nmoles ICV, rat, listed as quisqualate
  BEHAVIOR: severe convulsions and death
[1]; Quisqualate 250 nmoles ICV, score zero is normal, 3 is severely abnormal
  placement and clasp reflex score: 3
[1]; Quisqualate 1 μmoles ICV, rat
  BEHAVIOR: severe repeated full body convulsions; also recorded: severe scratching; also recorded: severe teeth chattering; also recorded: foaming at mouth
  time to death: 5 to 15 min
  death, cases: 100%
[1]; Quisqualate 500 μmoles ICV, rat
  BEHAVIOR: vocalization
[1]; quisqualate alone 225 nmoles ICV
  duration of teeth chattering, akinesia and mobilization versus lysosphingolipid-alone groups and quisqualate + lysosphingomyelin 150 nmoles: significantly (p<.01) more time engaged in these behaviors
[1]; quisqualate alone at 225 nmoles ICV, 2 hours observation, n=6
  number of convulsions/spasms compared to all other groups: significantly (p.<01) more convulsions/spasms

## CCCCCCCCCCCCC/C=C/[C@@H](O)[C@@H](N)COP(=O)([O-])OCC[N+](C)(C)C [lysosphingomyelin, sphingosyl phosphoryicholine]
[1]; 125 nmoles ICV
  convulsant behavior, compound alone: displayed no convulsant behavior
[1]; 150 nmoles ICV
  convulsant behavior, compound alone: displayed no convulsant behavior
[1]; rat
  effective dose: 125 nmol and 150 nmol
  behavioral and histological changes caused by quisqualate: absent
[1]; Lysosphingomyelin 150 nmoles ICV
  sedation produced by the lysosphingolipid: mild sedation
[1]
  behavioral or neurotoxic effects of the compound itself: no behavioral or neurotoxic effects were observed
[1]; [5]
  number of convulsions or spasms: significantly (p<01) attenuated
[1]; pretreatment 150 nmoles ICV 30 minutes before quisqualate 225 nmoles, n=6
  number of convulsions or spasms: significantly (p<01) attenuated
[1]; quisqualate 225 nmoles and lysophingomyelin 150 nmoles ICV
  time quisqualate-alone animals spent in teeth chattering, akinesia and mobilization compared with this group: significantly (p<.01) more time
[2]
  diminution in Vmax: 60%±10%
  increase in calcium ion concentration required for optimal activity: 5 fold
[2]; 10 μM sphingosine
  effect on KM for substrate phosphatidylinositol bis-phosphate: no change

## CCCCCCCCCCCCC/C=C/[C@@H](O)[C@@H](N)CO[C@@H]1O[C@H](CO)[C@H](O)[C@H](O)[C@H]1O [psychosine, lysocerebroside]
[1]; 125 nmoles ICV
  convulsant behavior, compound alone: displayed no convulsant behavior
[1]; rat
  effective dose: 125 nmol
  behavioral and histological changes caused by quisqualate: absent
[1]; Psychosine 25 nmoles ICV 30 minutes prior to Quisqualate 200 nmoles
  BEHAVIORAL RESPONSE: Moderate convulsions, teeth chattering; also recorded: akinesia and hyperactivity
[1]; Psychosine 50 nmoles ICV 30 minutes prior to Quisqualate 200 nmoles
  BEHAVIORAL RESPONSE: Moderate convulsions, teeth chattering; also recorded: akinesia and hyperactivity
[1]; Psychosine 100 nmoles ICV 30 minutes prior to Quisqualate 200 nmoles
  BEHAVIORAL RESPONSE: Almost complete attenuation of Quisqualate; also recorded: some teeth chattering post-injection
[1]; Psychosine 100 nmoles ICV 30 minutes prior to Quisqualate 250 nmoles
  BEHAVIORAL RESPONSE: Moderate convulsions, teeth chattering; also recorded: akinesia. Quisqualate markedly reduced
[1]; Psychosine 125 nmoles ICV 30 minutes prior to Quisqualate 200 nmoles
  BEHAVIORAL RESPONSE: Complete attenuation of Quisqualate response
[1]; Psychosine 125 nmoles ICV 30 minutes prior to Quisqualate 225 nmoles
  BEHAVIORAL RESPONSE: Complete attenuation of Quisqualate response
[1]; Psychosine 150 nmoles ICV 30 minutes prior to Quisqualate 250 nmoles
  BEHAVIORAL RESPONSE: Almost complete attenuation of Quisqualate
[1]; Psychosine 150 nmoles ICV, short term
  sedation produced by the lysosphingolipid: sedation at this dose
[1]
  behavioral or neurotoxic effects of the compound itself: no behavioral or neurotoxic effects were observed
[1]; [5]
  number of convulsions or spasms: significantly (p<01) attenuated
[2]
  diminution in Vmax: 60%±10%
  increase in calcium ion concentration required for optimal activity: 5 fold
[2]; 10 μM sphingosine
  effect on KM for substrate phosphatidylinositol bis-phosphate: no change

## CCCCCCCCCCCCC/C=C/[C@@H](O)[C@@H](N)CO [sphingosine]
[2]; 10 μM sphingosine
  calcium ion concentration required for optimal activity: decrease
  effect on KM for substrate phosphatidylinositol bis-phosphate: no effect
